Data: patent US20250082931A1, “Treating Gastric Cancer Using TTFields Combined with XELOX, FOLFOX or the Individual Constituents Thereof” (Novocure GmbH, priority 2019, published 2025)

Tests used:
AGS cells [1] = assay: Clonogenic effect (colonies count); format: cell-based; details: for colonies count: FOLFOX experiment, 50 nM, 72 h
KATO III cells [2] = assay: Apoptosis analysis by Annexin V / 7AAD staining; format: cell-based; details: for AnnV+ 7AAD+ cell fraction / AnnV+ 7AAD− cell fraction / AnnV− 7AAD+ cell fraction / AnnV− 7AAD− cell fraction: 72 h
Protocol: After 72 h of treatment the media and the cells were collected, and cytotoxicity was determined by cell counts. Cells (including cells from the media) were stained for Annexin V and 7AAD for apoptosis analysis. For the testing of the clonogenic effect, cells were seeded for colonies.
(§1) Cells were seeded on inovitro dishes and petri dishes 24 h before starting the experiments. Media containing the indicated concentration of each chemotherapy component alone or FOLFOX and control media was added to the cells and the dishes were connected to TTFields (as in SOP-BI-009) or grown in 37° C., 5% CO2 for 72 h. Each treatment included 8 repeats (8 dishes). The media was replaced every 24 h. At the end of the experiment the cells were collected, and cytotoxicity was determined by cell counts, small number of cells were seeded for colonies and the cells (including cells from the media) were stained for Annexin V and 7AAD for apoptosis analysis.
Apoptotic effect: Average of cell fraction of each marker staining (Annexin V and 7AAD) of at least 5 dishes from each treatment was calculated in Excel software. The averages from these repeats was calculated to averages and is presented in stacked bar graph using GraphPed software.

KATO III cells [3] = assay: Overall effect (cytotoxic effect x clonogenic effect); details: low concentration
Protocol: After 6-14 days the colonies were fixed, stained and counted to determine clonogenic effect. The overall effect was calculated by multiplying the cytotoxic effect and the clonogenic effect.
Overall effect: Each colony number was multiply in the percent of cytotoxic effect of its dish and averages and standard deviations of each treatment were calculated in Excel software. […] Significant was determine by 2-way ANOVA followed Multiple comparison using GraphPed software.

AGS cells [4] = assay: Cytotoxic effect by cell count after 72 h, with and without TTFields
Protocol: (§2) During the treatment the media of all dishes was replaced every 24 h (“hours”).
(§3) After 72 h of treatment the media and the cells were collected, and cytotoxicity was determined by cell counts.
as §1
(§4) A TTFields generator (Inovitro systems) was used to apply the treatment to the cells.
(§5) Cytotoxic effect: Average and standard deviation of cell number of at least 5 dishes from each treatment was calculated in Excel software. The averages from these repeats was calculated to averages and standard error and is presented as percent from control (no drug treatment) in XY graph of points with error bars using GraphPed software. Significant was determine by 2-way ANOVA followed Multiple comparison using GraphPed software.

KATO III cells [5] = assay: as above
Protocol: as §2, §3, §1, §4, §5

[6] = 50 nM, + TTFields 150 kHz 1.6 V/cm
[7] = 100 nM, + TTFields 150 kHz 1.6 V/cm
[8] = 200 nM, + TTFields 150 kHz 1.6 V/cm
[9] = 400 nM, + TTFields 150 kHz 1.6 V/cm
[10] = FOLFOX experiment, 50 nM, + TTFields 150 kHz 1.6 V/cm
[11] = FOLFOX experiment, 50 nM, no TTFields

SMILES: O=C1[O][Pt]2([NH][C@@H]3CCCC[C@H]3[NH]2)[O]C1=O [Oxaliplatin]
- colonies count (AGS cells [1]; + TTFields 150 kHz 1.0 V/cm): 64 % from control
- colonies count (AGS cells [1]; no TTFields): 91 % from control
- colonies number (clonogenic effect and overall effect), drug + TTFields compared to drug alone (AGS cells [1]; Two-way ANOVA P<0.001): significant reduction in colonies number
- elevation in percent of cells that undergo apoptosis, drug + TTFields compared to drug alone (KATO III cells [2]): higher
- AnnV+ 7AAD+ cell fraction (KATO III cells [2]; [6]): 16.12%
- AnnV+ 7AAD− cell fraction (KATO III cells [2]; [6]): 16.57%
- AnnV− 7AAD+ cell fraction (KATO III cells [2]; [6]): 1.31%
- AnnV− 7AAD− cell fraction (KATO III cells [2]; [6]): 66.01%
- AnnV+ 7AAD+ cell fraction (KATO III cells [2]; 50 nM, no TTFields): 6.09%
- AnnV+ 7AAD− cell fraction (KATO III cells [2]; 50 nM, no TTFields): 11.36%
- AnnV− 7AAD+ cell fraction (KATO III cells [2]; 50 nM, no TTFields): 1.30%
- AnnV− 7AAD− cell fraction (KATO III cells [2]; 50 nM, no TTFields): 81.25%
- AnnV+ 7AAD+ cell fraction (KATO III cells [2]; [7]): 14.83%
- AnnV+ 7AAD− cell fraction (KATO III cells [2]; [7]): 19.81%
- AnnV− 7AAD+ cell fraction (KATO III cells [2]; [7]): 0.72%
- AnnV− 7AAD− cell fraction (KATO III cells [2]; [7]): 64.63%
- AnnV+ 7AAD+ cell fraction (KATO III cells [2]; 100 nM, no TTFields): 6.42%
- AnnV+ 7AAD− cell fraction (KATO III cells [2]; 100 nM, no TTFields): 10.55%
- AnnV− 7AAD+ cell fraction (KATO III cells [2]; 100 nM, no TTFields): 1.32%
- AnnV− 7AAD− cell fraction (KATO III cells [2]; 100 nM, no TTFields): 81.71%
- AnnV+ 7AAD+ cell fraction (KATO III cells [2]; [8]): 19.97%
- AnnV+ 7AAD− cell fraction (KATO III cells [2]; [8]): 22.60%
- AnnV− 7AAD+ cell fraction (KATO III cells [2]; [8]): 0.86%
- AnnV− 7AAD− cell fraction (KATO III cells [2]; [8]): 56.57%
- AnnV+ 7AAD+ cell fraction (KATO III cells [2]; 200 nM, no TTFields): 8.42%
- AnnV+ 7AAD− cell fraction (KATO III cells [2]; 200 nM, no TTFields): 11.47%
- AnnV− 7AAD+ cell fraction (KATO III cells [2]; 200 nM, no TTFields): 1.01%
- AnnV− 7AAD− cell fraction (KATO III cells [2]; 200 nM, no TTFields): 79.10%
- AnnV+ 7AAD+ cell fraction (KATO III cells [2]; [9]): 21.45%
- AnnV+ 7AAD− cell fraction (KATO III cells [2]; [9]): 25.36%
- AnnV− 7AAD+ cell fraction (KATO III cells [2]; [9]): 0.65%
- AnnV− 7AAD− cell fraction (KATO III cells [2]; [9]): 52.54%
- AnnV+ 7AAD+ cell fraction (KATO III cells [2]; 400 nM, no TTFields): 11.24%
- AnnV+ 7AAD− cell fraction (KATO III cells [2]; 400 nM, no TTFields): 12.11%
- AnnV− 7AAD+ cell fraction (KATO III cells [2]; 400 nM, no TTFields): 1.42%
- AnnV− 7AAD− cell fraction (KATO III cells [2]; 400 nM, no TTFields): 75.23%
- AnnV+ 7AAD+ cell fraction (KATO III cells [2]; [10]): 27.60%
- AnnV+ 7AAD− cell fraction (KATO III cells [2]; [10]): 15.15%
- AnnV− 7AAD+ cell fraction (KATO III cells [2]; [10]): 1.32%
- AnnV− 7AAD− cell fraction (KATO III cells [2]; [10]): 55.94%
- AnnV+ 7AAD+ cell fraction (KATO III cells [2]; [11]): 18.07%
- AnnV+ 7AAD− cell fraction (KATO III cells [2]; [11]): 10.28%
- AnnV− 7AAD+ cell fraction (KATO III cells [2]; [11]): 1.12%
- AnnV− 7AAD− cell fraction (KATO III cells [2]; [11]): 70.54%
- additional clonogenic and overall effect over TTFields alone (KATO III cells [3]): no additional effect
- cell count (AGS cells [4]; 25 nM, + TTFields 150 kHz 1.0 V/cm): 62 % from control
- cell count (AGS cells [4]; 25 nM, no TTFields): 88 % from control
- cell count (AGS cells [4]; 50 nM, + TTFields 150 kHz 1.0 V/cm): 43 % from control
- cell count (AGS cells [4]; 50 nM, no TTFields): 66 % from control
- cell count (AGS cells [4]; 100 nM, + TTFields 150 kHz 1.0 V/cm): 33 % from control
- cell count (AGS cells [4]; 100 nM, no TTFields): 52 % from control
- cell count (AGS cells [4]; 200 nM, + TTFields 150 kHz 1.0 V/cm): 21 % from control
- cell count (AGS cells [4]; 200 nM, no TTFields): 39 % from control
- cell count (AGS cells [4]; 400 nM, + TTFields 150 kHz 1.0 V/cm): 8 % from control
- cell count (AGS cells [4]; 400 nM, no TTFields): 11 % from control
- cell count (AGS cells [4]; FOLFOX experiment, 50 nM, + TTFields 150 kHz 1.0 V/cm): 46 % from control
- cell count (AGS cells [4]; [11]): 78 % from control
- cell count (KATO III cells [5]; [6]): 48 % from control
- cell count (KATO III cells [5]; 50 nM, no TTFields): 82 % from control
- cell count (KATO III cells [5]; [7]): 46 % from control
- cell count (KATO III cells [5]; 100 nM, no TTFields): 75 % from control
- cell count (KATO III cells [5]; [8]): 30 % from control
- cell count (KATO III cells [5]; 200 nM, no TTFields): 64 % from control
- cell count (KATO III cells [5]; [9]): 24 % from control
- cell count (KATO III cells [5]; 400 nM, no TTFields): 39 % from control
- cell count (KATO III cells [5]; 800 nM, + TTFields 150 kHz 1.6 V/cm): 21 % from control
- cell count (KATO III cells [5]; 800 nM, no TTFields): 25 % from control
- cell count (KATO III cells [5]; [10]): 51 % from control
- cell count (KATO III cells [5]; [11]): 84 % from control
